# From PMC10399917 (Journal of Molecular Cell Biology, 2023)
# Target: His-SPIKE-S2 (Severe acute respiratory syndrome coronavirus 2, UniProt P0DTC2)
# Assay type: binding, SARS-CoV-2
# Conditions: 25 µM
row,SMILES,Thermal shift of His-SPIKE-S2 compared to DMSO control
1,N#C/C(=C/c1ccc(O)c(O)c1)C(=O)NCc1ccccc1 [AG-490],did not show a change in the thermal shift curve
2,"O=C(/C=C/c1ccc(O)c(O)c1)OCCc1ccccc1 [CAPE, caffeic acid phenethyl ester]",did not show a change in the thermal shift curve
3,CC(C)c1onc(-c2c(Cl)cccc2Cl)c1COc1ccc(/C=C/c2cccc(C(=O)O)c2)c(Cl)c1 [GW4064],interfered with the assay
4,Cc1cc2c(C(C)C)c(O)c(O)c(C=O)c2c(O)c1-c1c(C)cc2c(C(C)C)c(O)c(O)c(C=O)c2c1O [gossypol acetate],showed thermal shift
